Measured values as given in patent publication US20090062294A1, “HETEROARYL-SUBSTITUTED UREA MODULATORS OF FATTY ACID AMIDE HYDROLASE” (priority 2007, published 2009).
pIC50: −log10 of the molar value. Counter-ions that a name gives are not always drawn.

Key:
rat FAAH = target: T1, rat FAAH (Rattus norvegicus, UniProt P97612); assay: Assay Method 2: FAAH assay, 3H-anandamide hydrolysis in homogenate of SK-N-MC cells transfected with rat FAAH; type: biochemical; details: average of results, > = solubility limit or highest concentration tested
T1 sequence (P97612 1-579): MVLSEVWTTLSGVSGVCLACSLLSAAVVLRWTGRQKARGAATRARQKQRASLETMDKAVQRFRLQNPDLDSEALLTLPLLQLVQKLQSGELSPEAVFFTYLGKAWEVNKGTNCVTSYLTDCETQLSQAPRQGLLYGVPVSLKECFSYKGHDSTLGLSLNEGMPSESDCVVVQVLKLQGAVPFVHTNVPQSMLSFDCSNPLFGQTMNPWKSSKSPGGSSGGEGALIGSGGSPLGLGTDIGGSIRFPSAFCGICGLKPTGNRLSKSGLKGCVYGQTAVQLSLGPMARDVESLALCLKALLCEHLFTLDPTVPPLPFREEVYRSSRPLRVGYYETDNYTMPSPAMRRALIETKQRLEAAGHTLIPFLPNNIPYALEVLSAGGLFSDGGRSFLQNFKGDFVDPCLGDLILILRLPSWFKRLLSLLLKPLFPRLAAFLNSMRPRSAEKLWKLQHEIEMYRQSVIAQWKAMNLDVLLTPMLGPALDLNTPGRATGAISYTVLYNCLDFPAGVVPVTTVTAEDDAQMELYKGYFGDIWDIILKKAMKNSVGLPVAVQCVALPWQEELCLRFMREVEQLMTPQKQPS
Procedure, shortened: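 Homogenate of SK-N-MC cells stably transfected with rat FAAH cDNA (G418-selected clones) in pH 9 Tris/EDTA/glycerol/Triton buffer. Incubated with compound and 80 nM final [3H]-anandamide for 1 h at rt. Released [3H]-ethanolamine separated from substrate on activated charcoal filters and counted by scintillation.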

[1] = tested on: mechanical (tactile) allodynia in the left hind paw; assay: Assay Method 3: Rat Mild Thermal Injury Model (MTI), mechanical allodynia; type: in vivo, Sprague-Dawley rats; details: 0.5 h after administration
Text: Assay Method 3—Rat Mild Thermal Injury Model (MTI)
Pathogen-free, male albino Sprague-Dawley rats were purchased from Harlan Industries (San Diego, Calif.) and maintained on a 12-h light/dark cycle (lights on at 9:00 AM and off at 9:00 PM) in a climate-controlled room. Food and water were available ad libitum up to the time of the testing.
Under isoflurane/oxygen anesthesia, a first-degree burn injury (erythema without blistering) was produced as follows: the plantar surface of the rat's left hind paw was placed on water-dampened 56° C. hotplate for 20 seconds and steady contact was maintained by applying an 84 g weight to the dorsum (after Nozaki-Taguchi & Yaksh, Neurosci. Lett. 1998, 254, 25-28).
Mild thermal injury results in mechanical allodynia in the left hind paw. Mechanical (tactile) allodynia was assessed by determining the median threshold at which the affected paw was withdrawn from graded stimuli (von Frey filaments ranging from 0.41 to 15.8 g) applied perpendicularly with sufficient force to bend slightly and held for 2-3 seconds against the proximal half of the third and fourth toe surfaces through wire-mesh observation cages. Paw flinching during or immediately following the removal of the stimulus was considered a positive response. A paw withdrawal threshold (PWT) was determined by sequentially increasing and decreasing the stimulus strength and analyzing withdrawal data using an adaptation of the Dixon up-down method, as described (Chaplan et al., J. Neurosci. 1994, 53, 55-63). Rats were included in the study only if their baseline PWT was 3.1623 g or lower (4.5 logarithmically).
Rats were tested for pre-injury thresholds prior to mild thermal injury and again for baseline thresholds after development of mechanical allodynia. Immediately after baseline measurement, test compound or vehicle was administered orally and the measurement was repeated at 0.5 h after administration. The tactile thresholds (log value) were converted to percent of a maximum possible effect ( %MPE): % MPE=[Threshold(t)−Threshold(baseline)]*100/[Threshold(pre)−Threshold(baseline)], where t=post-treatment time. Data were expressed as mean±standard error of the mean (S.E.M.). Statistical analysis was performed using two-way ANOVA with repeated measures with a significance level of p<0.05.
Results for compounds tested in this assay are presented in Table 2, as an average of results obtained. Compounds were tested in free base, hydrochloride salt, and/or trifluoroacetic acid salt forms.

anxiety = details: rats; cited from earlier work
thermal nociception [2] = details: rats; cited from earlier work
pain = details: rat; cited from earlier work
FAAH [3] = target: T2, FAAH (Homo sapiens, UniProt O00519); details: cited from earlier work
T2 sequence (O00519 1-579): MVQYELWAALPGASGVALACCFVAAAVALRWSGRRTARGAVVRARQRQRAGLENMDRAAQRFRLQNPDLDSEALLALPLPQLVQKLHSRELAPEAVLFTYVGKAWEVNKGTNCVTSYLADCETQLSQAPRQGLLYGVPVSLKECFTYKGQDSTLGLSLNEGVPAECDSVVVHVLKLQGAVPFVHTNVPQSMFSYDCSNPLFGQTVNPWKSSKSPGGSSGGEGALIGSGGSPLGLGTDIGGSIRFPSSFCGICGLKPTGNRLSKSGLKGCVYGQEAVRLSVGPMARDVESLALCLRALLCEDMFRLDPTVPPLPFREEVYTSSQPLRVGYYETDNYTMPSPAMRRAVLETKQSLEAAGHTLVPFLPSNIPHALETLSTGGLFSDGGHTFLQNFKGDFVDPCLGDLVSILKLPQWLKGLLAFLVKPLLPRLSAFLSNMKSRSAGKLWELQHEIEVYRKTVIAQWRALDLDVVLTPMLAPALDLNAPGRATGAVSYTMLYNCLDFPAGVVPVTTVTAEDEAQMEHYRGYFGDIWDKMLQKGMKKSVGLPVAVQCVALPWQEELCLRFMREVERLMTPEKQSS

thermal nociception [4] = details: rats; cited from earlier work; remark: listed apart in the source
spasticity = details: model of multiple sclerosis; cited from earlier work
FAAH [5] = target: T2, FAAH; assay: Assay Method 1: FAAH assay, 3H-anandamide hydrolysis in homogenate of T84 cells or SK-N-MC cells transfected with human FAAH; type: biochemical; details: average of results, > = solubility limit or highest concentration tested
Procedure, shortened: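 Homogenates of T84 cells or of SK-N-MC cells stably transfected with human FAAH (G418-selected) were prepared in pH 9 Tris/EDTA/glycerol/Triton buffer. They were incubated with compound and 80 nM final ^3H-anandamide for 1 h at rt. Released ^3H-ethanolamine was separated on activated charcoal and counted by scintillation.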

neuropathic pain = details: rats; cited from earlier work
[6] = tested on: acute thermal nociception; details: rats; cited from earlier work

Row | Structure (SMILES) | pIC50 (rat FAAH) | pIC50 (FAAH [5]) | other results
1 | O=C(Nc1noc2ccccc12)N1CCN(Cc2cccc(Oc3ccc(Cl)cc3)c2)CC1 [Example 36, 4-[3-(4-Chloro-phenoxy)-benzyl]-piperazine-1-carboxylic acid benzo[d]isoxazol-3-ylamide trifluoroacetic acid salt] | 8.00 |  | % MPE ([1]; 20 mg/Kg p.o., mean +/- S.E.M.): 38 +/− 13%
2 | NC(=O)c1cccc(-c2cccc(OC(=O)NC3CCCCC3)c2)c1 [URB-597] |  |  | efficacy in zero plus maze model of anxiety (anxiety): efficacy; analgesic efficacy/activity in hot plate test (thermal nociception [2]): analgesic efficacy; analgesic efficacy in formalin test (pain): analgesic efficacy
3 | O=C(CCCCCCc1ccccc1)c1ncc(-c2ccccn2)o1 [OL-135] |  |  | analgesic efficacy/activity in hot plate test (thermal nociception [2]): analgesic activity; inhibition of FAAH (FAAH [3]): potent inhibitor; analgesic activity in tail emersion test (thermal nociception [4]): analgesic activity
4 | CCCCCCCCCCCCCCCCS(=O)(=O)F [AM374] |  |  | spasticity in CREAE mice (spasticity): significantly reduce spasticity
5 | O=C(Nc1cccnn1)N1CCN(Cc2cccc(Oc3ccc(Cl)cc3)c2)CC1 [Example 246, 4-[3-(4-Chloro-phenoxy)-benzyl]-piperazine-1-carboxylic acid pyridazin-3-ylamide] | 6.70 |  | % MPE ([1]; 20 mg/Kg p.o., mean +/- S.E.M.): 32 +/− 3%
6 | O=C(Nc1ccon1)N1CCN(Cc2cccc(Oc3ccc(Cl)cc3)c2)CC1 [Example 46, 4-[3-(4-Chloro-phenoxy)-benzyl]-piperazine-1-carboxylic acid isoxazol-3-ylamide trifluoroacetic acid salt] |  |  | % MPE ([1]; 6 mg/Kg p.o.): 0%
7 | O=C(Nc1cnccn1)N1CCN(Cc2cccc(Oc3ccc(Cl)cc3)c2)CC1 [Example 58, 4-[3-(4-Chloro-phenoxy)-benzyl]-piperazine-1-carboxylic acid pyrazin-2-ylamide trifluoroacetic acid salt] | 8.05 |  | % MPE ([1]; 20 mg/Kg p.o., mean +/- S.E.M.): 52 +/− 7%
8 | N#Cc1cccc(Oc2cccc(CN3CCN(C(=O)Nc4noc5ccccc45)CC3)c2)c1 [Example 129, N-1,2-Benzisoxazol-3-yl-4-[3-(3-cyanophenoxy)benzyl]piperazine-1-carboxamide] | 6.92 | 7.10 | 
9 | O=C(Nc1cnccn1)N1CCN(Cc2ccc(Br)c(F)c2)CC1 [Example 222, 4-(4-Bromo-3-fluorobenzyl)-N-pyrazin-2-ylpiperazine-1-carboxamide] | 6.22 | 6.15 | 
10 | N#Cc1ccccc1COc1cccc(CN2CCN(C(=O)Nc3noc4ccccc34)CC2)c1 [Example 98, 4-[3-(2-Cyano-benzyloxy)-benzyl]-piperazine-1-carboxylic acid benzo[d]isoxazol-3-ylamide] | 6.52 | 7.66 | 
11 | O=C(Nc1nn[nH]n1)N1CCN(Cc2cccc(Oc3cccc(C(F)(F)F)c3)c2)CC1 [Example 186, N-2H-Tetrazol-5-yl-4-{3-[3-(trifluoromethyl)phenoxy]benzyl}piperazine-1-carboxamide] | 6.80 | 6.48 | 
12 | Cc1nc(-c2ccccc2)c(-c2ccccc2)n1CCCCCCNC(=O)Oc1ccccc1F [BMS-1] |  |  | analgesic effect in Chung spinal nerve ligation model (neuropathic pain): analgesic effect; analgesic effect in Hargraves test [6]: analgesic effect
13 | O=C(Nc1noc2ccccc12)N1CCN(Cc2ccc(Br)cc2)CC1 [Example 120, N-1,2-Benzisoxazol-3-yl-4-(4-bromobenzyl)piperazine-1-carboxamide] | 6.92 | 7.10 | 
14 | O=C(Nc1noc2ccccc12)N1CCN(Cc2cccc(Oc3cccc(Br)c3)c2)CC1 [Example 31, 4-[3-(3-Bromo-phenoxy)-benzyl]-piperazine-1-carboxylic acid benzo[d]isoxazol-3-ylamide trifluoroacetic acid salt] | 7.77 | 7.66 | 
15 | O=C(Nc1cccc2nonc12)N1CCN(Cc2ccc3c(c2)OC(F)(F)O3)CC1 [Example 5, 4-(2,2-Difluoro-benzo[1,3]dioxol-5-ylmethyl)-piperazine-1-carboxylic acid benzo[1,2,5]oxadiazol-4-ylamide trifluoroacetic acid salt] | 5.92 | 6.77 | 
16 | O=C(Nc1noc2ccccc12)N1CCN(Cc2cccc(C#Cc3ccc(Cl)cc3Cl)c2)CC1 [Example 81, N-1,2-Benzisoxazol-3-yl-4-{3-[(2,4-dichlorophenyl)-ethynyl]benzyl}-piperazine-1-carboxamide] | 6.62 | 6.34 | 
